Tests used:
Assay type in all cases: functional
MOLT-4 = assay: Growth inhibition of human MOLT-4 cells assessed as cell growth at 1 uM incubated for 48 hrs by sulforhodamine B assay relative to control; details: read-out: Activity
A549 = assay: Growth inhibition of human A549/ATCC cells assessed as cell growth at 0.1 uM incubated for 48 hrs by sulforhodamine B assay relative to control; details: read-out: Activity
OVCAR-8 = assay: Growth inhibition of human OVCAR-8 cells incubated for 48 hrs by sulforhodamine B assay
MDA-MB-231 [1] = assay: Growth inhibition of human MDA-MB-231 cells assessed as cell growth at 0.1 uM incubated for 48 hrs by sulforhodamine B assay relative to control; details: read-out: Activity
UACC-257 [2] = assay: Growth inhibition of human UACC-257 cells assessed as cell growth at 100 uM incubated for 48 hrs by sulforhodamine B assay relative to control; details: read-out: Activity
IGROV-1 = assay: Growth inhibition of human IGROV-1 cells assessed as cell growth at 0.1 uM incubated for 48 hrs by sulforhodamine B assay relative to control; details: read-out: Activity
COLO 205 = assay: Growth inhibition of human COLO 205 cells assessed as cell growth at 1 uM incubated for 48 hrs by sulforhodamine B assay relative to control; details: read-out: Activity
HCC 2998 = assay: Growth inhibition of human HCC 2998 cells assessed as cell growth at 0.01 uM incubated for 48 hrs by sulforhodamine B assay relative to control; details: read-out: Activity
NCI-H522 [3] = assay: Growth inhibition of human NCI-H522 cells assessed as cell growth at 0.1 uM incubated for 48 hrs by sulforhodamine B assay relative to control; details: read-out: Activity
KM12 = assay: Growth inhibition of human KM12 cells incubated for 48 hrs by sulforhodamine B assay
RXF 393 = assay: Growth inhibition of human RXF 393 cells incubated for 48 hrs by sulforhodamine B assay
Hs-578T = assay: Growth inhibition of human Hs-578T cells assessed as cell growth at 0.1 uM incubated for 48 hrs by sulforhodamine B assay relative to control; details: read-out: Activity
UACC-257 [4] = assay: Growth inhibition of human UACC-257 cells assessed as cell growth at 1 uM incubated for 48 hrs by sulforhodamine B assay relative to control; details: read-out: Activity
SK-OV-3 = assay: Growth inhibition of human SK-OV-3 cells assessed as cell growth at 100 uM incubated for 48 hrs by sulforhodamine B assay relative to control; details: read-out: Activity
MCF7 = assay: Growth inhibition of human MCF7 cells assessed as cell growth at 100 uM incubated for 48 hrs by sulforhodamine B assay relative to control; details: read-out: Activity
M14 = assay: Growth inhibition of human M14 cells assessed as cell growth at 100 uM incubated for 48 hrs by sulforhodamine B assay relative to control; details: read-out: Activity
SF-268 = assay: Growth inhibition of human SF-268 cells assessed as cell growth at 0.1 uM incubated for 48 hrs by sulforhodamine B assay relative to control; details: read-out: Activity
NCI-H460 = assay: Growth inhibition of human NCI-H460 cells incubated for 48 hrs by sulforhodamine B assay
OVCAR-5 [5] = assay: Growth inhibition of human OVCAR-5 cells incubated for 48 hrs by sulforhodamine B assay
T47D = assay: Growth inhibition of human T47D cells incubated for 48 hrs by sulforhodamine B assay
NCI-H23 = assay: Growth inhibition of human NCI-H23 cells assessed as cell growth at 1 uM incubated for 48 hrs by sulforhodamine B assay relative to control; details: read-out: Activity
MDA-MB-231 [6] = assay: Growth inhibition of human MDA-MB-231 cells assessed as cell growth at 0.01 uM incubated for 48 hrs by sulforhodamine B assay relative to control; details: read-out: Activity
PC-3 = assay: Growth inhibition of human PC-3 cells assessed as cell growth at 0.01 uM incubated for 48 hrs by sulforhodamine B assay relative to control; details: read-out: Activity
RPMI-8226 = assay: Growth inhibition of human RPMI-8226 cells assessed as cell growth at 1 uM incubated for 48 hrs by sulforhodamine B assay relative to control; details: read-out: Activity
HL-60(TB) = assay: Growth inhibition of human HL-60(TB) cells assessed as cell growth at 0.01 uM incubated for 48 hrs by sulforhodamine B assay relative to control; details: read-out: Activity
SK-MEL-2 = assay: Growth inhibition of human SK-MEL-2 cells incubated for 48 hrs by sulforhodamine B assay
ACHN = assay: Growth inhibition of human ACHN cells assessed as cell growth at 0.1 uM incubated for 48 hrs by sulforhodamine B assay relative to control; details: read-out: Activity
HCT-15 = assay: Growth inhibition of human HCT-15 cells assessed as cell growth at 0.1 uM incubated for 48 hrs by sulforhodamine B assay relative to control; details: read-out: Activity
TK-10 = assay: Growth inhibition of human TK-10 cells assessed as cell growth at 0.1 uM incubated for 48 hrs by sulforhodamine B assay relative to control; details: read-out: Activity
OVCAR-5 [7] = assay: Growth inhibition of human OVCAR-5 cells assessed as cell growth at 100 uM incubated for 48 hrs by sulforhodamine B assay relative to control; details: read-out: Activity
LOX IMVI = assay: Growth inhibition of human LOX IMVI cells assessed as cell growth at 1 uM incubated for 48 hrs by sulforhodamine B assay relative to control; details: read-out: Activity
NCI-H522 [8] = assay: Growth inhibition of human NCI-H522 cells assessed as cell growth at 0.01 uM incubated for 48 hrs by sulforhodamine B assay relative to control; details: read-out: Activity
CAKI-1 = assay: Growth inhibition of human CAKI-1 cells assessed as cell growth at 0.01 uM incubated for 48 hrs by sulforhodamine B assay relative to control; details: read-out: Activity
OVCAR-3 = assay: Growth inhibition of human OVCAR-3 cells assessed as cell growth at 0.01 uM incubated for 48 hrs by sulforhodamine B assay relative to control; details: read-out: Activity
[9] = read-out: LC50 (the source's name)
[10] = read-out: pLC50 (the source's name) (converted)

Compound: CC(=O)Nc1cc(CCl)cc(NC(=O)c2ccc(C(=O)Nc3cccc(NC(=O)CCCN(C)C)c3)cc2)c1
- growth at 1 µM (MOLT-4): 99%
- growth at 0.1 µM (A549): 99%
- GI50 (OVCAR-8; read-out: GI50): > 100 µM
- CC50 (OVCAR-8; [9]): > 100 µM
- TGI (OVCAR-8; read-out: TGI): > 100 µM
- GI50 (OVCAR-8; read-out: pGI50 (converted)): > 100 µM
- CC50 (OVCAR-8; [10]): > 100 µM
- TGI (OVCAR-8; read-out: pTGI): > 100 µM
- growth at 0.1 µM (MDA-MB-231 [1]): 106%
- growth at 100 µM (UACC-257 [2]): 105%
- growth at 0.1 µM (IGROV-1): 113%
- growth at 1 µM (COLO 205): 109%
- growth at 0.01 µM (HCC 2998): 102%
- growth at 0.1 µM (NCI-H522 [3]): 89%
- GI50 (KM12; read-out: GI50): > 100 µM
- CC50 (KM12; [9]): > 100 µM
- TGI (KM12; read-out: TGI): > 100 µM
- GI50 (KM12; read-out: pGI50 (converted)): > 100 µM
- CC50 (KM12; [10]): > 100 µM
- TGI (KM12; read-out: pTGI): > 100 µM
- GI50 (RXF 393; read-out: GI50): > 100 µM
- CC50 (RXF 393; [9]): > 100 µM
- TGI (RXF 393; read-out: TGI): > 100 µM
- GI50 (RXF 393; read-out: pGI50 (converted)): > 100 µM
- CC50 (RXF 393; [10]): > 100 µM
- TGI (RXF 393; read-out: pTGI): > 100 µM
- growth at 0.1 µM (Hs-578T): 116%
- growth at 1 µM (UACC-257 [4]): 95%
- growth at 100 µM (SK-OV-3): 109%
- growth at 100 µM (MCF7): 27%
- growth at 100 µM (M14): 91%
- growth at 0.1 µM (SF-268): 101%
- GI50 (NCI-H460; read-out: GI50): > 100 µM
- CC50 (NCI-H460; [9]): > 100 µM
- TGI (NCI-H460; read-out: TGI): > 100 µM
- GI50 (NCI-H460; read-out: pGI50 (converted)): > 100 µM
- CC50 (NCI-H460; [10]): > 100 µM
- TGI (NCI-H460; read-out: pTGI): > 100 µM
- GI50 (OVCAR-5 [5]; read-out: GI50): > 100 µM
- LC50 (OVCAR-5 [5]; read-out: LC50): > 100 µM
- TGI (OVCAR-5 [5]; read-out: TGI): > 100 µM
- GI50 (OVCAR-5 [5]; read-out: pGI50 (converted)): > 100 µM
- LC50 (OVCAR-5 [5]; read-out: pLC50 (converted)): > 100 µM
- TGI (OVCAR-5 [5]; read-out: pTGI): > 100 µM
- GI50 (T47D; read-out: GI50): > 100 µM
- CC50 (T47D; [9]): > 100 µM
- TGI (T47D; read-out: TGI): > 100 µM
- GI50 (T47D; read-out: pGI50 (converted)): > 100 µM
- CC50 (T47D; [10]): > 100 µM
- TGI (T47D; read-out: pTGI): > 100 µM
- growth at 1 µM (NCI-H23): 93%
- growth at 0.01 µM (MDA-MB-231 [6]): 103%
- growth at 0.01 µM (PC-3): 104%
- growth at 1 µM (RPMI-8226): 116%
- growth at 0.01 µM (HL-60(TB)): 86%
- GI50 (SK-MEL-2; read-out: GI50): > 100 µM
- CC50 (SK-MEL-2; [9]): > 100 µM
- TGI (SK-MEL-2; read-out: TGI): > 100 µM
- GI50 (SK-MEL-2; read-out: pGI50 (converted)): > 100 µM
- CC50 (SK-MEL-2; [10]): > 100 µM
- TGI (SK-MEL-2; read-out: pTGI): > 100 µM
- growth at 0.1 µM (ACHN): 101%
- growth at 0.1 µM (HCT-15): 88%
- growth at 0.1 µM (TK-10): 106%
- growth at 100 µM (OVCAR-5 [7]): 91%
- growth at 1 µM (LOX IMVI): 86%
- growth at 0.01 µM (NCI-H522 [8]): 96%
- growth at 0.01 µM (CAKI-1): 100%
- growth at 0.01 µM (OVCAR-3): 112%

Source: ChEMBL document CHEMBL4715697, “Synthesis and biological activity of benzamide DNA minor groove binders” (2016)
